# Reference: patent US8067620B2, “Dispiro 1,2,4-trioxolane antimalarials” (Medicines for Malaria Venture MMV, priority 2005, dated 2011)
# Read-outs that look alike come from different tables or passages of the source.
# What was measured:
# [1] = tested on: chloroquine-sensitive NF54 strain of Plasmodium falciparum; assay: Activity against P. falciparum NF54 strain in vitro; assay type: cell-based
# From the text: (§1) Activity of 1,2,4-trioxolanes against P. falciparum in vitro.
# [2] = tested on: chloroquine-resistant K1 strain of Plasmodium falciparum; assay: Activity against P. falciparum K1 strain in vitro; assay type: cell-based
# From the text: as §1
# [3] = tested on: ANKA strain of P. berghei; assay: Single dose in vivo screen in P. berghei-infected NMRI mice; settings: for Survival (days) 30 mg/kg SSV po / Activity (%) 30 mg/kg SSV po: single 30 mg/kg po dose in SSV one day post-infection; for Activity (%) 30 mg/kg SSV po: percent reduction in parasitemia on day three post-infection; for Cures 30 mg/kg SSV po: single 30 mg/kg po dose in SSV, cure = survival to day 30 post-infection, groups of five mice
# Method: Activity of 1,2,4-trioxolanes against P. berghei in vivo. In the single dose in vivo screen, NMRI mice infected with the ANKA strain of P. berghei (groups of five mice) were treated one day post-infection with trioxolanes dissolved or suspended in standard suspending vehicle (SSV). The SSV consists of either 0.5% w/v carboxymethyl cellulose, 0.5% v/v benzyl alcohol, 0.4% v/v Tween 80, and 0.9% w/v sodium chloride in water or 0.5% hydroxypropylmethylcellulose 0.4% v/s Tween 80, and 0.5% v/v benzyl alcohol in water. […] Antimalarial activity was measured by percent reduction in parasitemia on day three post-infection and survival times compared to an untreated control group. Survival to day 30 post-infection is considered to be a cure in this model.
# [4] = tested on: P. berghei; assay: Prophylactic activity against P. berghei in vivo (mice dosed before infection); settings: for Cures 24 h prior to infection (30 mg/kg) / Activity (%) 24 h prior to infection (30 mg/kg): single 30 mg/kg oral dose 24 h prior to infection; for Cures 48 h prior to infection (100 mg/kg) / Activity (%) 48 h prior to infection (100 mg/kg): single 100 mg/kg oral dose 48 h prior to infection; for Activity (%) 24 h prior to infection (30 mg/kg) / Activity (%) 48 h prior to infection (100 mg/kg): parasitemia day 3 post-infection; for Activity (%) 72 h prior to infection (100 mg/kg) / Cures 72 h prior to infection (100 mg/kg): single 100 mg/kg oral dose 72 h prior to infection
# Method: All groups (n=5 mice per group) including an untreated control group, were infected at the same time and parasitemia was determined for each animal on day 3 post-infection and compared with the level of parasitemia in control animals.
# [5] = Pharmacokinetic studies in rats (oral); assay type: in vivo, rat; settings: oral 10 mg/kg; for Oral Bioavailability at 10 mg/kg (%): relative to an IV dose
# Method: Pharmacokinetic studies in rats: Compounds were administered orally to rats (n=2) at a dose of 10 mg/kg in a suspension formulation containing hydroxypropylmethyl cellulose, Tween 80, benzyl alcohol, and water. […] Oral bioavailability for each compound was calculated relative to an IV dose for each compound in a suitable vehicle.
# [6] = tested on: Embryonic red blood cells (RBCs); assay: Rat whole embryo culture (WEC) model, embryotoxicity
# From the text: Embryonic red blood cells (RBCs) were the primary target leading to anemia and subsequent hypoxia in embryonic tissues.
# Longo, M.; Zanoncelli, S.; Manera, D.; Brughera, M.; Colombo, P.; Lansen J.; Mazué, G.; Gomes, M.; Taylor W. R. J.; Olliaro, P. Effects of the Antimalarial Drug Dihydroartemisinin (DHA) on Rat Embryos In Vitro. Repro. Tox. 2006, 21, 83-93.
# [7] = Blood stability studies in freshly collected rat blood; assay type: in vitro ADME; design: unit not given here
# Method: Blood stability studies: Compounds were incubated at 37° C. in freshly collected rat blood. At selected time points, duplicate aliquots of the whole blood were sampled, centrifuged and the plasma assayed for parent compound by LC-MS.
# [8] = P. falciparum NF54, in vitro, second value of K1/NF54 cell, read-out: IC50 (ng/ml) NF54
# [9] = P. falciparum K1, in vitro, first value of K1/NF54 cell, read-out: IC50 (ng/ml) K1
Compound,"IC50 [1, 8] [ng/mL]","IC50 [2, 9] [ng/mL]",Survival (days) 30 mg/kg SSV po [3] [days],Activity (%) 30 mg/kg SSV po [3] [%],Cures 30 mg/kg SSV po [3],Cures 24 h prior to infection (30 mg/kg) ([4]; n=5 mice),Cures 48 h prior to infection (100 mg/kg) ([4]; n=5 mice),Activity (%) 24 h prior to infection (30 mg/kg) [4] [%],Activity (%) 48 h prior to infection (100 mg/kg) [4] [%],Activity (%) 72 h prior to infection (100 mg/kg) [4] [%],Cures 72 h prior to infection (100 mg/kg) ([4]; n=5 mice),NOAEL for embryonic RBCs [6] [µg/mL],Stability in Rat Blood (t1/2) at 37° C. [7],other results
"CO[C@H]1O[C@@H]2O[C@@]3(C)CC[C@H]4[C@H](C)CC[C@@H]([C@H]1C)[C@@]24OO3 [AM, artemether, reference compound]",1.2,0.74,9.0,99.7,0/5,–,–,–,–,–,–,–,–,–
"CCN(CC)CCCC(C)Nc1ccnc2cc(Cl)ccc12 (stereo not drawn) [CQ, chloroquine, reference compound]",–,–,9.6,–,0/5,0/5,0/5,–,–,–,–,–,–,"IC50 ([1]; K1 / NF54, read-out: IC50 (ng/ml) NF54): 5.1 ng/mL; IC50 ([2]; K1 / NF54, read-out: IC50 (ng/ml) K1): 62 ng/mL"
"OC(c1cc(C(F)(F)F)nc2c(C(F)(F)F)cccc12)C1CCCCN1 (stereo not drawn) [MQ, mefloquine, reference compound]",5.8,3,21.8,99.6,0/5,3/5,3/5,>99.9,99.9,>99.9,0/5,–,–,–
"CC(C)(N)CNC(=O)C[C@H]1CC[C@]2(CC1)OO[C@]1(O2)C2CC3CC(C2)CC1C3 [OZ277, reference compound]",–,–,8.0,99.7,0/5,0/5,0/5,13,0,–,–,0.2,0.8,In Vivo Oral t1/2 at 10 mg/kg [5]: 1.6 h; Oral Bioavailability at 10 mg/kg (%) [5]: 19%
CS(=O)(=O)O.NC1CCC(Oc2ccc(C3CCC4(CC3)OOC3(O4)C4CC5CC(C4)CC3C5)cc2)CC1 (stereo not drawn) [OZ493],–,–,–,–,–,3/5,5/5,>99.9,99,99.9,5/5,1,>17,"In Vivo Oral t1/2 at 10 mg/kg ([5]; 10 mg/kg): 7.7 h; Oral Bioavailability at 10 mg/kg (%) ([5]; 10 mg/kg): 51%; Activity (%) 96 h prior to infection (100 mg/kg) ([4]; single 100 mg/kg oral dose 96 h prior to infection): 99.5%; Cures 96 h prior to infection (100 mg/kg) ([4]; single 100 mg/kg oral dose 96 h prior to infection, n=5 mice): 3/5"
